For 26 molecules, TGI results are on record in PubChem BioAssay (NCI).

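Protocol summary: plate cells (96-well), add compound at 5 concentrations, incubate 48 h, interpolate endpoints linearly. TGI: concentration producing complete growth inhibition.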

Common to all, as to assay: DTP human tumour cell line panel, 48 h
Test [1] relates to NCI-H522 lung.
Test [2] has as its system MALME-3M melanoma.
In test [3] the test system is MCF7 breast.
Test [4] concerns OVCAR-5 ovarian.
Test [5] deals with CAKI-1 renal.
For test [6], the system named is TK-10 renal.
Test [7] relates to SR leukemia.
In test [8] the test system is RPMI-8226 leukemia.
Test [9] has as its system CCRF-CEM leukemia.
Test [10] has as its system NCI-H23 lung.
Test [11] deals with SK-MEL-28 melanoma.

Take `CCCC[Si](CCCC)(CCCC)O[C@@H](/C=C/C(=O)OCC)[C@H](Cc1ccccc1)O[Si](CCCC)(CCCC)CCCC`: the concentration for total growth inhibition (TGI) in [1], in test [2], in test [3], in test [4], in test [5] and in test [6] was more than 100 µM each time. Moreover, the TGI in test [7], in test [8], in test [9] and in test [10] was more than 100 µM each time.

In the case of `O=C1c2ccc3ccccc3c2CCC1N1CCCCC1` (configuration not stated), the TGI in [1] was 35.7 µM; in test [2] it was 31.4 µM; in test [3], more than 100 µM; in [4], 37.9 µM; in test [5], 29.5 µM; in [11], 33.1 µM. Moreover, the figures for the TGI in test [6], in test [7] and in test [10] were 29.6 µM, 36.6 µM and 40.2 µM, respectively.

With `COc1cc(OC)nc(NC(=O)NS(=O)(=O)c2cccc3ncn(C)c(=O)c23)n1`, the total growth inhibition concentration (TGI) in test [1], in test [2], in test [3], in test [4], in test [5] and in test [6] was more than 100 µM in each case. For the same molecule, the total growth inhibition concentration (TGI) in [7], in test [8], in test [9] and in [10] was more than 100 µM each time.

Turning to `Cc1ccc(S(=O)(=O)N/N=C2/CC[C@H](C(C)(C)C)C[C@@H]2C)cc1`, the TGI came to 29.8 µM in test [2]; 32.8 µM in test [3]; 32.5 µM in [4]; 26.3 µM in [5]; 32.8 µM in [11]; 30.4 µM in test [6]. Also, the TGI in test [7] is more than 100 µM; in [8], more than 100 µM; in [9], 38.8 µM; in test [10], 36.8 µM.

For `O=C1CCC2(c3ccc(F)cc3)Nc3ncncc3N12` (configuration not stated), the TGI in test [1], in test [2], in test [3], in test [4], in test [6] and in test [7] was more than 10 µM in each case. Moreover, the TGI in test [9] and in [10] was more than 10 µM each time.

As for `Cc1cc(-c2ccc(Cl)cc2)c(C#N)c(=S)n1C1OC(CO)C(O)C(O)C1O` (configuration not stated), the TGI in test [1], in test [2], in test [3], in [4], in [5] and in [11] was more than 100 µM in each case. The TGI in test [6], in test [7], in [9] and in test [10] was more than 100 µM throughout.

`COc1ccc(N=C2C(=Nc3ccc(OC)cc3)N(c3ccccc3[N+](=O)[O-])C(=S)N2c2ccc(OC)cc2)cc1`: the concentration for total growth inhibition (TGI) in test [1], in [3], in [4], in test [5], in test [11] and in [6] was more than 100 µM each time. The TGI in [7], in test [8] and in [10] was more than 100 µM throughout.

On to `Oc1ccc2c3c1OC1c4[nH]c5c(c4CC4(O)C(C2)N(CC2CC2)CC[C@]314)CC1(O)C2Cc3ccc(O)c4c3[C@@]1(CCN2CC1CC1)C5O4` (some centres not stated), for which the TGI in test [1] is 49.3 µM; in test [2] it was 31.6 µM; in test [3] it was more than 100 µM; in [4] it was 74.9 µM; in [5] it was more than 100 µM; in test [11], 41.4 µM. Further, the total growth inhibition concentration (TGI) is 44.6 µM in test [6], 57.5 µM in test [7], 60.8 µM in [8] and more than 100 µM in test [10].

For the molecule `CC(=O)OCC(OC(C)=O)C(OC(C)=O)C(OC(C)=O)C(/C=N\Nc1nc2ccccc2c(=O)[nH]1)OC(C)=O` (configuration not stated), the TGI in test [1], in [2], in test [3], in [4], in [5] and in test [11] was more than 100 µM in each case. The total growth inhibition concentration (TGI) in [7], in [8], in test [9] and in [10] was more than 100 µM throughout.

On to `Cc1c(C)c2ccc(O)cc2[nH]c1=O`, for which the total growth inhibition concentration (TGI) in test [3], in test [4], in test [5], in test [11], in test [7] and in test [8] was more than 100 µM throughout. Further, the TGI in test [9] and in [10] was more than 100 µM in each case.

Consider `CO[C@H]1C[C@H](O[C@H]2CC[C@]3(C=O)[C@H]4CC[C@]5(C)[C@@H](C6=CC(=O)OC6)CC[C@]5(O)[C@@H]4CC[C@]3(O)C2)O[C@H](C)[C@H]1O[C@@H]1O[C@H](CO[C@@H]2O[C@H](CO)[C@@H](O)[C@H](O)[C@H]2O)[C@@H](O)[C@H](O)[C@H]1O`, for which the TGI in test [1] turned out to be 0.0638 µM; in test [2], 0.243 µM; in test [3], 0.677 µM; in test [4], 0.199 µM; in test [5], 0.0456 µM; in test [11] it was 1.15 µM. Moreover, the total growth inhibition concentration (TGI) is 0.133 µM in test [6], 0.419 µM in test [7], more than 100 µM in [9] and 0.0531 µM in test [10].

Regarding `O=C(Nc1ccc(F)cc1)c1cc2ccc(O)cc2oc1=Nc1cccc(F)c1`, the TGI in [1] is 97.5 µM; in test [2] it was more than 100 µM; in test [3] it was more than 100 µM; in test [4], more than 100 µM; in [5], more than 100 µM; in [11], more than 100 µM. For the same molecule, the total growth inhibition concentration (TGI) in [7] is more than 100 µM; in test [8] it was more than 100 µM; in test [9], 71.8 µM; in test [10] it was 55.7 µM.

Consider `COc1ccc(C2S/C(=C\c3cccc([N+](=O)[O-])c3)C(=O)N2NC(=O)Cc2ccccc2)cc1` (configuration not stated), for which the TGI in test [1], in [2], in test [4], in test [5], in test [11] and in test [6] was more than 100 µM in each case. Further, the concentration for total growth inhibition (TGI) in test [7], in [8], in test [9] and in test [10] was more than 100 µM each time.

Take `CC[C@]12C=CCN3CCC4(c5cc(N=Nc6ccc([N+](=O)[O-])cc6)c(OC)cc5N(C)[C@H]4[C@@](O)(C(=O)OC)[C@@H]1OC(C)=O)[C@@H]32` (some centres not stated): the concentration for total growth inhibition (TGI) was 36.9 µM in test [2]; more than 100 µM in test [3]; 28.2 µM in [4]; 50 µM in test [5]; more than 100 µM in [11]; 63 µM in [6]. The TGI in test [7] came out at 32 µM; in [8], 46.1 µM; in test [9], 26.6 µM; in [10], 32.4 µM.

For the molecule `COc1ccc(C2C3=C(CCCC3=O)N(c3ccccc3)C3=C2C(=O)CCC3)cc1`, the TGI in test [3], in test [4], in test [5], in [11], in [6] and in [7] was more than 100 µM in each case. The concentration for total growth inhibition (TGI) in [8], in [9] and in test [10] was more than 100 µM throughout.

For `O=C1C=Cc2c(I)sc(I)c21`, the concentration for total growth inhibition (TGI) is 6.97 µM in test [1]; 33.4 µM in test [2]; 52.1 µM in test [3]; 94.6 µM in [4]; 33.3 µM in test [5]; 44.6 µM in [11]. For the same molecule, the total growth inhibition concentration (TGI) is 68.5 µM in test [6], 27 µM in test [7], 18.3 µM in test [9] and 36.7 µM in test [10].

As for `CN(C)N1C(=O)CC2(CCN(CCCC(=O)c3ccc(F)cc3)CC2)C1=O`, the concentration for total growth inhibition (TGI) in [1], in test [2], in test [3], in test [4], in [5] and in test [11] was more than 100 µM each time. For the same molecule, the TGI in test [6], in test [7], in test [8] and in test [10] was more than 100 µM throughout.

For `COc1ccc(-n2nnnc2C2(Nc3ccccc3)CCN(Cc3ccccc3)CC2)cc1`, the TGI in test [2] is 27.3 µM; in test [3], 23.3 µM; in test [4], 48.8 µM; in test [11], 26.6 µM; in [6] it was 40.9 µM; in test [7], more than 100 µM. In addition, the concentration for total growth inhibition (TGI) is 48.5 µM in test [8], more than 100 µM in test [9] and 57.9 µM in test [10].

With `C=C1C(=O)O[C@H]2[C@H]3O[C@@H](C[C@@H]12)[C@](C)(O)CCCC(C)=CCC[C@H]3C`, the total growth inhibition concentration (TGI) in [1] was determined as 17.3 µM; in test [3] it was 29.8 µM; in test [4], 31.1 µM; in [5] it was 28.5 µM; in test [11], 25.9 µM; in [6], 14.6 µM. Besides, the TGI was more than 100 µM in test [7], 17.4 µM in test [8], 3.24 µM in test [9] and 35.3 µM in [10].

As to `O=C(NC1CCN(Cc2ccccc2)CC1)c1ccccc1I`, the TGI in test [1] is 27.6 µM; in [2] it was 31.6 µM; in test [4] it was 58 µM; in [5], more than 100 µM; in [11] it was 36.5 µM; in test [6], 63.6 µM. The concentration for total growth inhibition (TGI) in [7] was more than 100 µM; in test [8], more than 100 µM; in test [9], 86.2 µM; in [10], 72.1 µM.

For the molecule `CC(C)(Cc1ccccc1)Cc1cc(O)ccc1O`, the TGI in [1] was 17.1 µM; in test [2], 33.2 µM; in [3], 86.5 µM; in test [4], 88.8 µM; in test [5], 35.1 µM; in test [11] it was 47.2 µM. Besides, the TGI in test [6] came out at 95.9 µM; in test [7], 27.7 µM; in test [9] it was 36.7 µM; in [10] it was 38.7 µM.

Consider `O=C(CN1CCCC1)Nc1ccc2sc3ccccc3c(=O)c2n1`, for which the TGI is 36 µM in test [1]; more than 100 µM in test [3]; 62.3 µM in test [4]; 47.1 µM in test [5]; 39.7 µM in [11]; more than 100 µM in [6]. Further, the TGI was more than 100 µM in test [7], 63 µM in test [8], 48.2 µM in test [9] and 99.1 µM in test [10].

For the molecule `O=C(NO)c1ccc(OCc2ccccc2)cc1`, the concentration for total growth inhibition (TGI) in test [1] is 51.5 µM; in [3], more than 100 µM; in [4], more than 100 µM; in [5] it was 54.2 µM; in test [11], more than 100 µM; in test [6], more than 100 µM. Besides, the TGI in [7] was 90.9 µM; in test [8], more than 100 µM; in test [9], more than 100 µM; in test [10] it was 28.1 µM.

As for `C[C@]12CCC(=O)C=C1CC[C@@H]1[C@@H]2CC[C@]2(C)C(=O)/C(=C\c3ccccc3)C[C@@H]12`, the TGI is 73.9 µM in test [2]; more than 56.1 µM in test [3]; more than 100 µM in [4]; more than 100 µM in test [5]; more than 81.4 µM in [11]; more than 100 µM in test [6]. Moreover, the TGI is more than 49.2 µM in test [7], more than 26.1 µM in test [8], 23.3 µM in test [9] and 62.5 µM in test [10].

`COc1ccc(N2C(=O)CC(c3c[nH]c4ccccc34)C2=O)cc1` (configuration not stated): the TGI in test [2], in test [3], in test [4], in [5], in test [11] and in test [6] was more than 100 µM in each case. Also, the TGI in [7], in [8], in [9] and in test [10] was more than 100 µM in each case.

For `Nc1nc(Cl)nc2c1ncn2C1CCC(CO)O1` (configuration not stated), the TGI in test [2], in test [3], in test [4], in [5], in [11] and in [6] was more than 100 µM throughout. Moreover, the concentration for total growth inhibition (TGI) in [7], in [8], in test [9] and in [10] was more than 100 µM each time.
